Assay results reported in a melting point compilation (Tetko et al.; mined from patent text by program, amines drawn as free bases though some values may be those of a salt).

Row | SMILES | melting point [°C]
1 | Cc1oc(C(C)(C)C)nc1CCOc1ccc(CC(OC(C)C)C(=O)O)c2sccc12 (configuration not stated) | 159 to 160
2 | COC(=O)c1cc(C(=O)N2CCCC(=O)C2)c2cc(Cc3ccc(F)cc3)cnc2c1O | 228 to 229
3 | COc1ccc(CNC(=O)n2cc(F)c(=O)[nH]c2=O)c(OC)c1OC | 159
4 | Cc1[nH]c(=O)c2c(ccc3nc(Nc4c(Cl)cccc4Cl)[nH]c32)c1C | > 300
5 | OC(Cc1ccccc1Cl)(Cn1ccnc1S)C1(Cl)CC1 (configuration not stated) | 124 to 126
6 | O=c1c(CCCCc2ccncc2)cc2cccnc2n1-c1cccc([N+](=O)[O-])c1 | 169 to 170
7 | O=Cc1ccc(-c2ccc(C(=O)O)cc2)c([N+](=O)[O-])c1 | 227 to 235
8 | Cc1cc(Cl)c(N)c(Cl)c1 | 50 to 52
9 | CCOc1ncc(Br)cc1C(=O)O | 122 to 124
10 | CCN(CC)c1nn2ccccc2c1C(C)=O | 59.5 to 60
11 | COc1ccc2cc(-c3csc(Cc4c(Cl)cccc4Cl)n3)ccc2c1 | 136 to 138
12 | CNc1nc(Nc2ccc(Cl)c(CNS(C)(=O)=O)c2)ncc1[N+](=O)[O-] | 250
13 | CCOC(=O)C1(c2cccs2)CC(CC)=NNC1C (configuration not stated) | 127
14 | CSC1C=C2C=CC=CN2N1[N+](=O)[O-] (configuration not stated) | 225
15 | C=CCC(C(O)=Nc1cc(Cl)cc(Cl)c1)C(C)C(=O)O (configuration not stated) | 131
16 | Cc1oc(-c2ccccc2)nc1COc1ccc(Cn2cc(CO)cn2)cc1 | 100 to 101
17 | CCC(=O)Nc1ccc(-c2ccnc3c(C(=O)c4ccccc4)cnn23)cc1 | 211 to 213
18 | COc1ccc(NC(=S)N2CCc3cc(S(=O)(=O)N4CC(c5ccccc5)NC4=O)ccc32)cc1 (configuration not stated) | 181 to 183
19 | COC(=O)C1=C(C)NC(C)=C(C(=O)OCC2(C)OCCO2)C1c1cccc([N+](=O)[O-])c1 (configuration not stated) | 143
20 | Cc1nnc(N(Cc2ccccc2)C(=O)Cc2ccccc2)s1 | 128
21 | Cc1cc(OC(F)F)nc(N)n1 | 136 to 137
22 | CCOC(=O)c1sc(Br)c2c1OCO2 | 93
23 | COc1ccc2c(c1)C(=O)N(c1ccc3c(c1)NCCN3)C2 | 159 to 163
24 | COc1cc2c(cc1OC)CN(CCCCc1ccc(NC(=O)c3cnc4ccccc4n3)cc1)CC2 | 144
25 | COC(=O)COCCOc1ccc(N)cc1 | 51 to 52.5
26 | CCOC(=O)/C=C/c1cnc2c(c1)C(=O)N(C)c1ccc(Cl)nc1N2CC | 192 to 193

Row | SMILES | melting point [°C]
27 | COc1ccc(CC(=O)O)c(C)c1OC | 102 to 104
28 | COC(=O)C=C(NC1C=CC=CC1(F)NC(=CC(=O)OC)C(=O)OC)C(=O)OC (configuration not stated) | 170 to 174
29 | O=C(c1ccc(Sc2ccc(O)cc2)cc1)c1ccc(Sc2ccc(O)cc2)cc1 | 219 to 221
30 | COc1cc(C(=O)COC(C)=O)ccc1OCCCCl | 93 to 96
31 | COc1cc(OC)c(N2CCCC2)cc1/C=C/C(=O)c1ccc(S(=O)(=O)NCC(=O)O)cc1 | 155 to 158
32 | COc1ccc(C(=O)C2=C(c3ccc(OC)cc3)CCc3cc(OC)ccc32)cc1 | 172 to 173
33 | Oc1ccc2c(c1)SCCc1c-2n(CCCCCN2CCCCC2)c2ccc(O)cc12 | 195 to 196
34 | CN(C)C(=O)Oc1ccc2c(c1)[nH]c(=O)c1c3ccc(OC(=O)N(C)C)cc3oc21 | 255 to 269
35 | COc1ccc(-c2ccc(C(C)O)cc2)cc1 (single isomer, unassigned; (+)) | 132 to 133
36 | CC1(C)OC[C@H](CCOc2c(C(C)(C)C)cc(SC(C)(C)Sc3cc(C(C)(C)C)c(O)c(C(C)(C)C)c3)cc2C(C)(C)C)O1 | 44 to 46
37 | CCCCNC(=O)NS(=O)(=O)c1cc(I)ccc1C(=O)OC | 128 to 130
38 | CCOC1(NC(=O)c2ccccc2)CC1 | 108 to 109
39 | Cn1c(=O)[nH]c2nc3ccc(OCCCC(=O)NC4CCCCC4)cc3cc21 | 282 to 284
40 | CC(=O)Oc1ccc2cccc(OS(=O)(=O)C(F)(F)F)c2n1 | 90
41 | COc1cccc(CNC(=O)[C@H]2N(C(=O)[C@@H](O)[C@@H](Cc3ccccc3)NC(=O)c3cccc(O)c3C)CSC2(C)C)c1 | 108 to 110
42 | COCCOc1ccc2c(c1)C1(CO2)C(=O)N(Cc2ccccn2)c2ccccc21 (configuration not stated) | 140 to 142
43 | CCCCC(=O)c1sc(Oc2ccc3c(c2)OCO3)c2c1CCc1cnn(C)c1-2 | 101 to 102
44 | CCC(=O)NC[C@H]1CN(c2ccc3c(c2)CCCc2cnoc2-3)C(=O)O1 | 185 to 186
45 | O=c1[nH]nc(-c2ccc(-n3ccnc3)cc2)c2ncccc12 | 376 to 378
46 | O=C(O)c1ccc(OCc2ccc(Cl)cc2)cc1OCc1ccccc1 | 150 to 152
47 | Cn1c2ccc(-c3nnn[nH]3)cc2c(=O)c2cc(-c3nnn[nH]3)ccc21 | > 400
48 | S=C(N/N=C/c1cccnc1)Nc1ccccc1 | 208 to 210
49 | CC(/C=C/[C@H]1C[C@H]1c1ccc2c(c1)C(C)(C)CCC2(C)C)=C\C(=O)O (racemic) | 93 to 96
50 | Cc1ccc2c(c1)[nH]c1cc(C)ccc12 | 280 to 281
51 | CC(C)(c1ccc(O)cc1)c1ccc(O)c(C(C)(C)c2ccc(O)cc2)c1 | 190
52 | CC(C(=O)O)c1ccc2c(c1)Sc1ncccc1CC2 (configuration not stated) | 161 to 162

Row | SMILES | melting point [°C]
53 | CC[C@H]1COC(=O)N1c1nc(-c2ccc(Br)cc2)cs1 | 138 to 140
54 | COC(=O)c1ncn2c1c(OC)nc1ccccc12 | 189 to 191
55 | CCOC(=O)c1cc(Cl)c(OCCCc2cc(C)no2)c(Cl)c1 | 49 to 50
56 | CCCCn1c(=O)c([N+](=O)[O-])c(NC)c2ccccc21 | 225 to 227
57 | CC(C)=NOCCCCn1cnc2c(N)nc3c(c21)CCCC3 | 151 to 153
58 | COc1ccc2[nH]c(SCc3ncc(F)c(N4CCOCC4)c3C)nc2c1 | 84 to 86
59 | CC(C)n1nc(-c2sc(Nc3ccccn3)nc2-c2ccccc2)ccc1=O | 194 to 195
60 | CCC(=O)Oc1cc(OC)cc(OC)c1C(=O)C=Cc1ccc2c(c1)OCO2 | 134
61 | CC(=O)Nc1c(C#N)ccc(C#N)c1[N+](=O)[O-] | 232 to 233
62 | O=C1c2cc(O)ccc2OCC1Cc1ccccn1 (configuration not stated) | 150 to 151
63 | CC(C)[C@@H](NS(=O)(=O)N1CCC(Oc2ccc(Cl)cn2)CC1)C(=O)NO | 97 to 98.4
64 | CCc1cc(NCc2nc3ccccc3s2)c(=O)[nH]c1C | 209 to 210
65 | NS(=O)(=O)c1ccc(NC(=O)CCl)c(Cl)c1 | 162 to 164
66 | N#Cc1cn(-c2ccc(Cl)cc2)c(=O)[nH]c1=O | 236 to 239
67 | Oc1ccc(-c2ccccn2)c(O)c1 | 170 to 172
68 | O=C(C=Cc1cc(O)c(O)c([N+](=O)[O-])c1)c1ccc([N+](=O)[O-])cc1 | 255 to 256
69 | O=C(Nc1ccc(-c2c[nH]c(=O)cn2)cc1)OCc1ccccc1 | 240 to 244
70 | Cc1nc(-c2cccc(Nc3ccc(I)cc3N)c2)cs1 | 151 to 152
71 | O=C1c2ccccc2C(=O)N1OCc1cccs1 | 130 to 131
72 | COC1=CC2(C)CCc3c(OC)ccc(OC)c3C2=CC1=O (configuration not stated) | 184 to 186
73 | O=c1oc(-c2ccccc2)cc(O)c1SCC1CC1 | 136 to 137
74 | CCCCCCCCCCCCCCOCC(C)(O)CNCCO (configuration not stated) | 49.1 to 50.2
75 | Cn1cc(CC(=O)O)c2cc(-c3ccc(C(F)(F)F)cc3)ccc21 | 167 to 168
76 | CC1(C)OC(=O)C(C=Nc2cncc(Br)c2)C(=O)O1 | 200 to 202
77 | CCS(=O)(=O)Nc1cc(Cc2c[nH]cn2)ccc1Cl | 159 to 160
78 | CCN(CC)CCn1nc2c3c(c(NCCN4C(=O)c5ccccc5C4=O)ccc31)Sc1cc(OC)ccc1-2 | 171 to 172

Row | SMILES | melting point [°C]
79 | Cc1c(CC(=O)N(C)O)c2cc(OCc3nc4ccccc4s3)ccc2n1Cc1ccc(Cl)cc1 | 174 to 175
80 | Cc1cc(C)n(-c2nccc(NC3CCCCC3)n2)n1 | 144 to 147
81 | Cc1onc(-c2c(Cl)cccc2Cl)c1CSc1ccc(OCC(=O)O)c2c1CCC2 | 151 to 152
82 | Cc1ccc2c(c1Cl)S(=O)(=O)NCN2C1CC1 | 230 to 232
83 | Cc1c(Cc2c[nH]cn2)ccc(O)c1C(N)=O | 263
84 | Cc1c(-c2ccc(O)cc2)n(Cc2ccc(OCCN(C(C)C)C(C)C)cc2)c2ccc(O)cc12 | 96 to 102
85 | CC(=O)NC(=O)C(C)SC(C)=O (configuration not stated) | 91 to 93
86 | O=C(OCC1OC(n2ccc(=O)[nH]c2=O)C(OC(=O)c2ccccc2)C1OC(=O)c1ccccc1)c1ccccc1 (configuration not stated) | 143 to 144
87 | O=C(O)c1cnn(CCCCN2CCN(c3ncccn3)CC2)c1 | 104 to 105
88 | COc1ccc(-c2c(C)c(NC(=O)CC(C)(C)C)c(C)c3c2OCC3c2ccc(C(C)C)cc2)cn1 (configuration not stated) | 120 to 123
89 | Nn1cnc2cc(C(F)(F)F)ccc21 | 140 to 142
90 | CN1C(=O)CC(Sc2cc(C(C)(C)C)c(O)c(C(C)(C)C)c2)C1=O (configuration not stated) | 132
91 | COc1cccc(C(=O)Nc2ccc(-n3nc(C(F)(F)F)cc3C(F)(F)F)cc2)c1 | 169 to 172
92 | CC(=O)OC1CSC(Oc2ccc(-c3cnccc3F)nc2-c2cnccc2F)C(OC(C)=O)C1OC(C)=O (configuration not stated) | 169
93 | CC=NN(C(=O)c1ccc(Cl)cc1)c1ccc(OC)c(F)c1 | 97 to 99
94 | O=C1NCC2=C1c1ccc(Cl)cc1C(c1ccccc1Cl)=NC2 | 195 to 197
95 | CC(=O)Nc1ccc(Nc2c([N+](=O)[O-])cc(C(=O)O)cc2S(=O)(=O)NC(C)=O)cc1 | 175 to 185
96 | CCCCCN1CC[C@@H](c2ccccc2Cl)[C@H](CO)C1 (racemic) | 101 to 102
97 | CCOc1cccc(-c2ccc(C3=CCN(S(=O)(=O)CC(=O)OC)CC3)cc2C)c1 | 79 to 81
98 | Nc1ccc(N)c(I)c1 | 95 to 99
99 | NCC(O)(CCc1ccccc1)CCc1ccccc1 | 104 to 106
100 | CCCSc1sc(C(=O)N2CCCC2)c2c1-c1oncc1C(C)(C)C2 | 72 to 76
101 | CCOC(=O)c1csc2cc(Oc3cc(Cl)nc(N)n3)ccc12 | 178 to 179
102 | COC(=O)Cc1cc2cc(O)ccc2s1 | 136 to 137
